Test results published in the supplement of paper PMC10307832.

How the values were obtained:
Assay in all cases: relative viability (nuclei count vs DMSO), 5 days (fraction); higher = more cells survive
SGI-1776 + Alpelisib = compound: CN1CCC(CNc2ccc3ncc(-c4cccc(OC(F)(F)F)c4)n3n2)CC1 [SGI-1776] + Cc1nc(NC(=O)N2CCC[C@H]2C(N)=O)sc1-c1ccnc(C(C)(C)C(F)(F)F)c1 [Alpelisib] (partner 2 µM)
How it was run: (§1)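 After 5 days of treatment, lung cancer cells in 1536-well plates were fixed and stained in a single step (final 0.05% Triton X-100, 1% formaldehyde, 1 ug/ml Hoechst) and their nuclei counted on 4× images. Treatment had been applied by pin tool the day after seeding as one drug alone or as a fixed anchor-drug dose with five library-drug doses (not always all listed) in √10 steps. Relative viability is the nuclei count of treated wells divided by that of vehicle wells, and values are medians of duplicate plates.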

Entinostat + Alpelisib = compound: Nc1ccccc1NC(=O)c1ccc(CNC(=O)OCc2cccnc2)cc1 [Entinostat] + Cc1nc(NC(=O)N2CCC[C@H]2C(N)=O)sc1-c1ccnc(C(C)(C)C(F)(F)F)c1 [Alpelisib] (partner 2 µM)
How it was run: as §1

SGI-1776 + Crizotinib = compound: CN1CCC(CNc2ccc3ncc(-c4cccc(OC(F)(F)F)c4)n3n2)CC1 [SGI-1776] + C[C@@H](Oc1cc(-c2cnn(C3CCNCC3)c2)cnc1N)c1c(Cl)ccc(F)c1Cl [Crizotinib] (partner 1 µM)
How it was run: as §1

[1] = compound: C1COCCN1C2=NC(=NC3=C2OC4=C3C=CC=N4)C5=CC(=CC=C5)NC(=O)C6=CN=C(C=C6)N + Cc1nc(NC(=O)N2CCC[C@H]2C(N)=O)sc1-c1ccnc(C(C)(C)C(F)(F)F)c1 [Alpelisib] (partner 2 µM)
How it was run: as §1

| Cell Line | relative viability (SGI-1776 + Alpelisib; first compound 0.08 µM) | relative viability (SGI-1776 + Alpelisib; first compound 0.8 µM) | relative viability (SGI-1776 + Alpelisib; first compound 2.53 µM) | relative viability (SGI-1776 + Alpelisib; first compound 8 µM) | relative viability (Entinostat + Alpelisib; first compound 0.02 µM) | relative viability (Entinostat + Alpelisib; first compound 0.06325 µM) | relative viability (Entinostat + Alpelisib; first compound 0.2 µM) | relative viability (Entinostat + Alpelisib; first compound 0.6325 µM) | relative viability (Entinostat + Alpelisib; first compound 2 µM) | relative viability (SGI-1776 + Crizotinib; first compound 0.08 µM) | relative viability (SGI-1776 + Crizotinib; first compound 0.8 µM) | relative viability (SGI-1776 + Crizotinib; first compound 2.53 µM) | relative viability (SGI-1776 + Crizotinib; first compound 8 µM) | relative viability ([1]; first compound 0.02 µM) | relative viability ([1]; first compound 0.06325 µM) | relative viability ([1]; first compound 0.2 µM) | relative viability ([1]; first compound 0.6325 µM) | relative viability ([1]; first compound 2 µM) |
| --- | --- | --- | --- | --- | --- | --- | --- | --- | --- | --- | --- | --- | --- | --- | --- | --- | --- | --- |
| NCI-H1915 | 1.09 | 1.12 | 1.11 | 1.03 | 1.07 | 1.08 | 1.05 | 0.816 | 0.402 | 0.945 | 0.864 | 0.833 | 0.918 | 1.01 | 1.17 | 1.08 | 1.05 | 0.971 |
| NCI-H1944 | 0.877 | 0.752 | 0.807 | 0.649 | 0.81 | 0.774 | 0.556 | 0.422 | 0.273 | 1.1 | 0.956 | 1.03 | 0.867 | 0.894 | 0.705 | 0.851 | 0.782 | 0.731 |
| NCI-H1975 | 0.674 | 0.598 | 0.501 | 0.322 | 0.454 | 0.38 | 0.38 | 0.247 | 0.204 | 0.999 | 0.833 | 0.771 | 0.441 | 0.677 | 0.705 | 0.548 | 0.567 | 0.352 |
| NCI-H1993 | 0.631 | 0.684 | 0.687 | 0.594 | 0.674 | 0.704 | 0.733 | 0.695 | 0.728 | 0.917 | 0.894 | 0.858 | 0.725 | 0.651 | 0.624 | 0.691 | 0.697 | 0.595 |
| NCI-H2009 | 1.21 | 1.17 | 1.25 | 1.09 | 1.21 | 1.13 | 1.15 | 0.884 | 0.721 | 1.04 | 1.02 | 1.07 | 0.675 | 1.26 | 1.24 | 1.16 | 1.11 | 0.838 |
| NCI-H2023 | 0.595 | 0.546 | 0.546 | 0.414 | 0.475 | 0.5 | 0.319 | 0.165 | 0.128 | 0.565 | 0.621 | 0.56 | 0.333 | 0.68 | 0.621 | 0.544 | 0.438 | 0.359 |
| NCI-H2085 | 1.01 | 0.96 | 0.978 | 0.844 | 0.947 | 0.946 | 0.766 | 0.634 | 0.502 | 0.858 | 0.767 | 0.853 | 0.71 | 0.956 | 0.988 | 0.926 | 0.909 | 0.596 |
| NCI-H2087 | 1.1 | 1.06 | 1.18 | 0.997 | 0.983 | 0.954 | 0.806 | 0.64 | 0.54 | 0.724 | 0.907 | 1.19 | 0.758 | 1.05 | 1.12 | 1.05 | 1.12 | 0.619 |
| NCI-H2126 | 0.735 | 0.733 | 0.751 | 0.676 | 0.738 | 0.708 | 0.614 | 0.46 | 0.317 | 1.01 | 1.04 | 1.08 | 0.968 | 0.778 | 0.726 | 0.732 | 0.753 | 0.627 |
| NCI-H2170 | 0.858 | 0.835 | 0.697 | 0.635 | 0.77 | 0.747 | 0.771 | 0.521 | 0.345 | 1.13 | 1.28 | 1.17 | 0.969 | 0.847 | 0.887 | 0.682 | 0.854 | 0.496 |
| NCI-H2228 | 0.776 | 0.636 | 0.727 | 0.239 | 0.785 | 0.608 | 0.473 | 0.325 | 0.273 | 0.523 | 0.417 | 0.396 | 0.15 | 0.737 | 0.707 | 0.66 | 0.493 | 0.317 |
| NCI-H2347 | 1.1 | 1.07 | 1.1 | 1.01 | 1.09 | 0.99 | 0.865 | 0.391 | 0.343 | 0.687 | 0.637 | 0.772 | 0.511 | 1.06 | 1.03 | 1.06 | 0.998 | 0.842 |
| NCI-H2405 | 0.865 | 0.766 | 0.739 | 0.383 | 0.789 | 1.01 | 0.931 | 0.795 | 0.528 | 0.857 | 0.809 | 0.854 | 0.642 | 0.664 | 0.716 | 0.803 | 0.815 | 0.622 |
| NCI-H3122 | 0.707 | 0.837 | 0.868 | 0.757 | 0.777 | 0.881 | 0.786 | 0.733 | 0.605 | 0.284 | 0.3 | 0.295 | 0.335 | 0.808 | 0.798 | 0.681 | 0.772 | 0.676 |
| PC-3 [JPC-3] | 1.1 | 0.946 | 1.06 | 0.971 | 0.98 | 0.929 | 0.829 | 0.667 | 0.463 | 0.978 | 1.05 | 0.981 | 0.904 | 0.976 | 1.05 | 1.1 | 0.991 | 0.829 |
| PC-14 | 1.12 | 0.956 | 0.976 | 0.757 | 1.03 | 0.99 | 0.935 | 0.487 | 0.219 | 0.889 | 0.895 | 0.96 | 0.79 | 0.881 | 1.21 | 0.917 | 0.916 | 0.577 |
| RERF-LC-KJ | 0.805 | 0.844 | 0.926 | 0.666 | 0.846 | 0.704 | 0.866 | 0.647 | 0.427 | 0.886 | 0.786 | 0.836 | 0.865 | 0.809 | 0.946 | 0.828 | 0.861 | 0.616 |
| SK-LU-1 | 1.02 | 1.01 | 0.816 | 0.406 | 0.954 | 0.962 | 0.943 | 0.555 | 0.458 | 1.04 | 0.833 | 0.756 | 0.352 | 0.956 | 1.04 | 0.879 | 0.749 | 0.473 |
